Source: US20150291565A1, “INDOLE COMPOUNDS AND THEIR USE AS ANTIMICROBIALS” (Memorial Sloan-Kettering Cancer Center, priority 2012, published 2015)
In brackets after ≈: the same amount, converted by molar mass. Read-outs that look alike come from different tables or passages of the source.

Columns and labels:
P. aeruginosa ATCC 9027 = test: Broth dilution MIC, P. aeruginosa ATCC 9027; assay type: cell-based; details: Pseudomonas aeruginosa
K. pneumoniae ATCC 13883 = test: Broth dilution MIC, K. pneumoniae ATCC 13883; assay type: cell-based; details: Klebsiella pneumoniae
[1] = tested on: S. aureus ATCC 33591 (MRSA); test: Broth dilution MIC, S. aureus ATCC 33591; assay type: cell-based; details: for MIC: Staphylococcus aureus
S. aureus BAA-39 (MDR) = test: Broth dilution MIC, S. aureus BAA-39; assay type: cell-based; details: for MIC: Staphylococcus aureus, BAA39
[2] = tested on: S. pneumoniae ATCC 700674 (PRSP); test: Broth dilution MIC, S. pneumoniae ATCC 700674; assay type: cell-based; details: Streptococcus pneumoniae
E. faecium CT-26 = test: Broth dilution MIC, E. faecium CT-26; assay type: cell-based; details: Enterococcus faecium
[3] = tested on: E. faecalis ATCC 29212 (VRE); test: Broth dilution MIC, E. faecalis ATCC 29212; assay type: cell-based
M. smegmatis (mc2155) = test: Disk diffusion assay, zone of inhibition, M. smegmatis; assay type: cell-based; details: disk diffusion zone of inhibition
E. coli ATCC 25922 = test: Broth dilution MIC, E. coli ATCC 25922; assay type: cell-based; details: Escherichia coli
[4] = tested on: S. pneumoniae ATCC 6301 (PSSP); test: Broth dilution MIC, S. pneumoniae ATCC 6301; assay type: cell-based; details: Streptococcus pneumoniae
C. albicans ATCC 14053 = test: Broth dilution MIC, C. albicans ATCC 14053; assay type: cell-based; details: Candida albicans, ATCC14053; Table 1; range 64 down to 0.12 μg/ml
Procedure: In vitro Anti-bacterial & Anti-fungal Activity Assay: All test compounds were prepared as 6.4 mg/ml stock solutions in DMSO and further diluted according to the NCCLS M7-A6 (Page 5) document with sterile water or appropriate diluent. A working stock of 256 μg/ml was used to do 1:2 serial dilutions in 96-well plates. […] The inoculums were prepared by making a direct sterile water suspension of isolated colonies from 18 to 24 hr agar plates for all organisms (Mueller Hinton, Blood Agar or SDA plates). Each bacterial suspension was adjusted to read between 0.09 and 0.11 absorbance at 620 nm. […] These were further diluted 1/100 in appropriate broth for inoculating the 96-well plates. The C. albicans suspension was adjusted to read between 70 and 75% Transmittance at 530 nm and then diluted 1/500 in RPMI+MOPS broth. All aerobic bacterial and fungal plates were incubated for 18 hrs. at 35° C. […] Plates were read using a Beckman Automated Plate Reader at 650 nm. Readings were confirmed by visual examination of plates. (See Table 1, Table 2, Table 3, and Table 4). […] It is important to note that positive results against C. albicans are often indicative of broad spectrum antifungal activity, while negative results are not necessarily conclusory of a lack of activity against other fungus.

[5] = tested on: E. faecium ATCC 700221 (VRE); test: Broth dilution MIC, E. faecium ATCC 700221; assay type: cell-based
E. coli ECM 1694 = test: Broth dilution MIC, E. coli ECM 1694; assay type: cell-based; details: Escherichia coli
[6] = tested on: S. aureus ATCC 29213 (MSSA); test: Broth dilution MIC, S. aureus ATCC 29213; assay type: cell-based; details: Staphylococcus aureus
MRSA = test: Disk diffusion assay, zone of inhibition, MRSA; assay type: cell-based, Staphylococcus aureus; details: disk diffusion zone of inhibition
K. pneumoniae ATCC 51503 = test: Broth dilution MIC, K. pneumoniae ATCC 51503; assay type: cell-based; details: Klebsiella pneumoniae
[7] = ATCC 9026 / ATCC 9027, Table 2, broth dilution MIC in ug/ml, read-out: MIC P aeruginosa ATCC 9026
[8] = ATCC9027, Table 1, range 64 down to 0.12 μg/ml, read-out: MIC P. aeruginosa ATCC 9027
[9] = ATCC13883, Table 1, range 64 down to 0.12 μg/ml, read-out: MIC K. pneumoniae ATCC 13883
[10] = ATCC13883, Table 2, broth dilution MIC in ug/ml, read-out: MIC K pneumonia ATCC 13883
[11] = Table 1, range 64 down to 0.12 μg/ml, read-out: MIC S. aureus ATCC 33591
[12] = Table 2, broth dilution MIC in ug/ml, read-out: MIC S aureus ATCC 33591 MRSA
[13] = Table 1, range 64 down to 0.12 μg/ml, read-out: MIC S. aureus BAA-39
[14] = Table 2, broth dilution MIC in ug/ml, read-out: MIC S aureus BAA-39 MDR
[15] = Table 1, range 64 down to 0.12 μg/ml, read-out: MIC S. pneumoniae ATCC 700674
[16] = Table 2, broth dilution MIC in ug/ml, read-out: MIC S pneumonia ATCC 700674 PRSP
[17] = CT26, Table 1, range 64 down to 0.12 μg/ml, read-out: MIC E. faecium CT-26
[18] = CT26, Table 2, broth dilution MIC in ug/ml, read-out: MIC E faecium CT-25
[19] = Enterococcus faecalis, Table 1, range 64 down to 0.12 μg/ml, read-out: MIC E. faecalis ATCC 29212
[20] = Table 2, broth dilution MIC in ug/ml, read-out: MIC E faecalis ATCC 29212 VRE
[21] = ATCC 25921 / ATCC 25922, Table 2, broth dilution MIC in ug/ml, read-out: MIC E. coli ATCC 25921
[22] = ATCC25922, Table 1, range 64 down to 0.12 μg/ml, read-out: MIC E. coli ATCC 25922
[23] = ATCC6301, Table 1, range 64 down to 0.12 μg/ml, read-out: MIC S. pneumoniae ATCC 6301
[24] = ATCC6301, Table 2, broth dilution MIC in ug/ml, read-out: MIC S pneumonia ATCC 6301 PSSP
[25] = Enterococcus faecium, Table 1, range 64 down to 0.12 μg/ml, read-out: MIC E. faecium ATCC 700221
[26] = Table 2, broth dilution MIC in ug/ml, read-out: MIC E faecium ATCC 700221 VRE
[27] = ECM1694, Table 1, range 64 down to 0.12 μg/ml, read-out: MIC E. coli ECM 1694
[28] = ECM1694, Table 2, broth dilution MIC in ug/ml, read-out: MIC E. coli ECM 1693
[29] = Table 1, range 64 down to 0.12 μg/ml, read-out: MIC S. aureus ATCC 29213
[30] = Table 2, broth dilution MIC in ug/ml, read-out: MIC S aureus ATCC 29213 MSSA
[31] = ATCC51503, Table 1, range 64 down to 0.12 μg/ml, read-out: MIC K. pneumoniae ATCC 51503
[32] = ATCC51503, Table 2, broth dilution MIC in ug/ml, read-out: MIC K pneumonia ATCC 51503

| MIC (P. aeruginosa ATCC 9027; [7]) [µg/mL] | MIC (P. aeruginosa ATCC 9027; [8]) [µg/mL] | MIC (K. pneumoniae ATCC 13883; [9]) [µg/mL] | MIC (K. pneumoniae ATCC 13883; [10]) [µg/mL] | MIC [1, 11] [µg/mL] | MIC [1, 12] [µg/mL] | MIC (S. aureus BAA-39 (MDR); [13]) [µg/mL] | MIC (S. aureus BAA-39 (MDR); [14]) [µg/mL] | MIC [2, 15] [µg/mL] | MIC [2, 16] [µg/mL] | MIC (E. faecium CT-26; [17]) [µg/mL] | MIC (E. faecium CT-26; [18]) [µg/mL] | MIC [3, 20] [µg/mL] | MIC (E. coli ATCC 25922; [21]) [µg/mL] | MIC (E. coli ATCC 25922; [22]) [µg/mL] | MIC [4, 23] [µg/mL] | MIC [4, 24] [µg/mL] | MIC (C. albicans ATCC 14053) [µg/mL] | MIC [5, 25] [µg/mL] | Structure (SMILES) | Zone Size M. smegmatis (M. smegmatis (mc2155)) [mm] | further results |
| --- | --- | --- | --- | --- | --- | --- | --- | --- | --- | --- | --- | --- | --- | --- | --- | --- | --- | --- | --- | --- | --- |
| 64 (≈ 146 µM) | > 64 | > 64 | 64 (≈ 146 µM) | 4 (≈ 9.14 µM) | 4 (≈ 9.14 µM) | 4 (≈ 9.14 µM) | 4 (≈ 9.14 µM) | 16 (≈ 36.6 µM) | 16 (≈ 36.6 µM) | 1 (≈ 2.29 µM) | 1 (≈ 2.29 µM) | 4 (≈ 9.14 µM) | 16 (≈ 36.6 µM) | 16 (≈ 36.6 µM) | 4 (≈ 9.14 µM) | 4 (≈ 9.14 µM) | 32 (≈ 73.1 µM) | 1 (≈ 2.29 µM) | c1cc(-c2cc3ccc(C4=NCCN4)cc3[nH]2)ccc1Nc1ccc(N2CCOCC2)cc1 [SKI-11] | 11 | MIC [3, 19]: 4 µg/mL (≈ 9.14 µM); MIC [5, 26]: 1 µg/mL (≈ 2.29 µM); MIC (E. coli ECM 1694; [27]): 1 µg/mL (≈ 2.29 µM); MIC (E. coli ECM 1694; [28]): 1 µg/mL (≈ 2.29 µM); MIC [6, 29]: 8 µg/mL (≈ 18.3 µM); MIC [6, 30]: 8 µg/mL (≈ 18.3 µM); Zone Size MRSA (MRSA): 11 mm; MIC (K. pneumoniae ATCC 51503; [31]): > 64 µg/mL; MIC (K. pneumoniae ATCC 51503; [32]): 64 µg/mL (≈ 146 µM) |
| 32 (≈ 74.5 µM) | 32 (≈ 74.5 µM) | 8 (≈ 18.6 µM) | 8 (≈ 18.6 µM) | 1 (≈ 2.33 µM) | 1 (≈ 2.33 µM) | 1 (≈ 2.33 µM) | 1 (≈ 2.33 µM) | ≤ 0.12 | 0.12 (≈ 0.279 µM) | ≤ 0.12 | 0.12 (≈ 0.279 µM) | 0.25 (≈ 0.582 µM) | 4 (≈ 9.31 µM) | 4 (≈ 9.31 µM) | ≤ 0.12 | 0.12 (≈ 0.279 µM) | 8 (≈ 18.6 µM) | ≤ 0.12 | c1ccc(-c2ccc(Nc3ccc(-c4cc5ccc(C6=NCCN6)cc5[nH]4)cc3)cc2)nc1 [SKI-12] | 12 | MIC S. aureus ATCC 33591 ([1]; Table 3, starting at 4 μg/ml): 1 µg/mL (≈ 2.33 µM); MIC S. aureus BAA-39 (S. aureus BAA-39 (MDR); Table 3, starting at 4 μg/ml): 1 µg/mL (≈ 2.33 µM); MIC ([2]; Table 3, starting at 4 μg/ml, read-out: MIC S. pneumoniae ATCC 700674): 0.12 µg/mL (≈ 0.279 µM); MIC (E. faecium CT-26; CT26, Table 3, starting at 4 μg/ml, read-out: MIC E. faecium CT-26): 0.12 µg/mL (≈ 0.279 µM); MIC ([3]; Enterococcus faecalis, Table 3, starting at 4 μg/ml, read-out: MIC E. faecalis ATCC 29212): 0.25 µg/mL (≈ 0.582 µM); MIC ([4]; ATCC6301, Table 3, starting at 4 μg/ml, read-out: MIC S. pneumoniae ATCC 6301): 0.12 µg/mL (≈ 0.279 µM); MIC ([5]; Enterococcus faecium, Table 3, starting at 4 μg/ml, read-out: MIC E. faecium ATCC 700221): 0.12 µg/mL (≈ 0.279 µM); MIC [5, 26]: 0.12 µg/mL (≈ 0.279 µM); MIC (E. coli ECM 1694; [27]): 4 µg/mL (≈ 9.31 µM); MIC (E. coli ECM 1694; [28]): 4 µg/mL (≈ 9.31 µM); MIC (E. coli ECM 1694; ECM1694, Table 3, starting at 4 μg/ml, read-out: MIC E. coli ECM 1694): 4 µg/mL (≈ 9.31 µM); MIC ([6]; Table 3, starting at 4 μg/ml, read-out: MIC S. aureus ATCC 29213): 1 µg/mL (≈ 2.33 µM); MIC [6, 29]: 1 µg/mL (≈ 2.33 µM); MIC [6, 30]: 1 µg/mL (≈ 2.33 µM); Zone Size MRSA (MRSA): 10 mm; MIC (K. pneumoniae ATCC 51503; [31]): 8 µg/mL (≈ 18.6 µM); MIC (K. pneumoniae ATCC 51503; [32]): 8 µg/mL (≈ 18.6 µM) |
| 64 (≈ 144 µM) | > 64 | > 64 | 64 (≈ 144 µM) | > 64 | 64 (≈ 144 µM) | > 64 | 64 (≈ 144 µM) | 4 (≈ 9.02 µM) | 4 (≈ 9.02 µM) | 8 (≈ 18 µM) | 8 (≈ 18 µM) | 32 (≈ 72.1 µM) | 64 (≈ 144 µM) | > 64 | 2 (≈ 4.51 µM) | 2 (≈ 4.51 µM) | > 64 | 16 (≈ 36.1 µM) | Nc1ccc(-c2ccc3cc(-c4ccc(Nc5ccc(C6=NCCN6)cc5)cc4)[nH]c3c2)cc1 [SKI-20] | 8 | MIC [3, 19]: 32 µg/mL (≈ 72.1 µM); MIC [5, 26]: 16 µg/mL (≈ 36.1 µM); MIC (E. coli ECM 1694; [27]): 64 µg/mL (≈ 144 µM); MIC (E. coli ECM 1694; [28]): 64 µg/mL (≈ 144 µM); MIC [6, 29]: > 64 µg/mL; MIC [6, 30]: 64 µg/mL (≈ 144 µM); Zone Size MRSA (MRSA): 9 mm; MIC (K. pneumoniae ATCC 51503; [31]): > 64 µg/mL; MIC (K. pneumoniae ATCC 51503; [32]): 64 µg/mL (≈ 144 µM) |
